In PubChem BioAssay AID248 (DTP/NCI, 2004):
Several values for one entry are separate records, joined by “and”; a condition that tells them apart may be missing. Identical values can stand only once. Inconclusive results and toxic doses are left out. No stated cut-off is given here; in the data, active means T/C of 150% or more; inactive means T/C below 125%.

System: L1210 leukemia ip in BDF1 mice, survival T/C
Assay: NCI In Vivo Anticancer Drug Screen. Data for tumor model L1210 Leukemia (intraperitoneal) in B6D2F1 (BDF1) mice
Details: endpoint: mean survival time, higher = longer survival
Method in brief: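 Read-out is survival time, reported as the treated-group measurement over the vehicle-control measurement.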

[1] = dose: 100.0 mg/kg/injection, schedule: Q01DX009 (ip), vehicle: saline
[2] = dose: 200.0 mg/kg/injection, schedule: Q01DX009 (ip), vehicle: saline
[3] = dose: 100.0 mg/kg/injection, schedule: Q04DX003 (ip), vehicle: Klucel (hydroxypropylcellulose) (HPC)
[4] = dose: 200.0 mg/kg/injection, schedule: Q04DX003 (ip), vehicle: Klucel (hydroxypropylcellulose) (HPC)
[5] = dose: 400.0 mg/kg/injection, schedule: Q04DX003 (ip), vehicle: Klucel (hydroxypropylcellulose) (HPC)
[6] = dose: 12.5 mg/kg/injection, schedule: Q04DX003 (ip), vehicle: saline
[7] = dose: 25.0 mg/kg/injection, schedule: Q04DX003 (ip), vehicle: saline
[8] = dose: 50.0 mg/kg/injection, schedule: Q01DX009 (ip), vehicle: saline
[9] = dose: 100.0 mg/kg/injection, schedule: Q01DX001 (ip), vehicle: saline
[10] = dose: 200.0 mg/kg/injection, schedule: Q01DX001 (ip), vehicle: saline

Measured: T/C

CCN(CC)Cc1cc(N)ccc1O
inactive: [1] 106 % of control | [2] 89 % of control

C/C(=N\Nc1nc2ccccc2s1)c1ccncc1
inactive: dose: 50.0 mg/kg/injection, schedule: Q01DX009 (ip), vehicle: Klucel (hydroxypropylcellulose) (HPC) 101 % of control | dose: 100.0 mg/kg/injection, schedule: Q01DX009 (ip), vehicle: Klucel (hydroxypropylcellulose) (HPC) 100 % of control | dose: 200.0 mg/kg/injection, schedule: Q01DX009 (ip), vehicle: Klucel (hydroxypropylcellulose) (HPC) 107 % of control | dose: 400.0 mg/kg/injection, schedule: Q01DX009 (ip), vehicle: Klucel (hydroxypropylcellulose) (HPC) 101 % of control

O=C(CNC(=O)c1ccc(Cl)cc1Cl)N/N=C/c1ccc(Cl)c(Cl)c1
inactive: dose: 25.0 mg/kg/injection, schedule: Q01DX009 (ip), vehicle: saline with Tween-80 95 % of control | dose: 50.0 mg/kg/injection, schedule: Q01DX009 (ip), vehicle: saline with Tween-80 91 % of control | dose: 100.0 mg/kg/injection, schedule: Q01DX009 (ip), vehicle: saline with Tween-80 88 % of control

CC(O)CNC(=S)c1ccccc1 (stereo not drawn)
inactive: dose: 100.0 mg/kg/injection, schedule: Q04DX002 (ip), vehicle: saline with Tween-80 101 % of control | dose: 200.0 mg/kg/injection, schedule: Q04DX002 (ip), vehicle: saline with Tween-80 101 % of control

N#[N+]c1nc[nH]c1C(N)=O
inactive: dose: 0.4 mg/kg/injection, schedule: Q03HX008 (ip), vehicle: steriod suspending solution 92 % of control | dose: 0.6 mg/kg/injection, schedule: Q03HX008 (ip), vehicle: steriod suspending solution 96 % of control | dose: 0.9 mg/kg/injection, schedule: Q03HX008 (ip), vehicle: steriod suspending solution 97 % of control | dose: 1.3 mg/kg/injection, schedule: Q03HX008 (ip), vehicle: steriod suspending solution 89 % of control | dose: 1.8 mg/kg/injection, schedule: Q03HX008 (ip), vehicle: steriod suspending solution 92 % of control | dose: 2.6 mg/kg/injection, schedule: Q03HX008 (ip), vehicle: steriod suspending solution 97 % of control | dose: 3.75 mg/kg/injection, schedule: Q01DX001 (ip), vehicle: steriod suspending solution 93 % of control | dose: 3.8 mg/kg/injection, schedule: Q03HX008 (ip), vehicle: steriod suspending solution 95 % of control | dose: 6.25 mg/kg/injection, schedule: Q01DX001 (ip), vehicle: steriod suspending solution 96 % of control | dose: 12.5 mg/kg/injection, schedule: Q01DX001 (ip), vehicle: steriod suspending solution 99 % of control

CC(O)C(Cc1ccccc1)NC(=O)C(=O)NC(Cc1ccccc1)C(C)O (stereo not drawn)
inactive: [3] 95 % of control | [4] 90 % of control | [5] 92 % of control

C[C@H]1C[C@H]2[C@@H]3CC[C@](O)(C(=O)CO)[C@@]3(C)C[C@H](O)[C@]2(F)[C@@]2(C)C=CC(=O)C=C12
inactive: dose: 25.0 mg/kg/injection, schedule: Q01DX001 (sc), vehicle: steriod suspending solution 103 % of control | dose: 50.0 mg/kg/injection, schedule: Q01DX001 (sc), vehicle: steriod suspending solution 100 % of control | dose: 50.0 mg/kg/injection, schedule: Q04DX003 (sc), vehicle: Klucel (hydroxypropylcellulose) (HPC) 88 % of control | dose: 100.0 mg/kg/injection, schedule: Q01DX001 (sc), vehicle: steriod suspending solution 94 % of control | dose: 100.0 mg/kg/injection, schedule: Q04DX003 (sc), vehicle: Klucel (hydroxypropylcellulose) (HPC) 98 % of control | dose: 200.0 mg/kg/injection, schedule: Q01DX001 (sc), vehicle: steriod suspending solution 98 % of control | dose: 200.0 mg/kg/injection, schedule: Q04DX003 (sc), vehicle: Klucel (hydroxypropylcellulose) (HPC) 90 % of control

N=C(N)c1ccc(-n2cc3cc(C(=N)N)ccc3n2)cc1
inactive: dose: 6.25 mg/kg/injection, schedule: Q04DX003 (ip), vehicle: saline 96 % of control and 110 % of control | [6] 100 % of control | [7] 106 % of control and 91 % of control

CCCCCCOC(=O)CCCc1ccc(N(CCCl)CCCl)cc1
inactive: dose: 100.0 mg/kg/injection, schedule: Q04DX002 (ip), vehicle: saline 114 % of control | dose: 200.0 mg/kg/injection, schedule: Q04DX002 (ip), vehicle: saline 111 % of control | dose: 400.0 mg/kg/injection, schedule: Q04DX002 (ip), vehicle: saline 124 % of control

C[n+]1cccc2cc(Br)ccc21
inactive: dose: 5.0 mg/kg/injection, schedule: Q01DX001 (ip), vehicle: other 100 % of control | dose: 10.0 mg/kg/injection, schedule: Q01DX001 (ip), vehicle: other 107 % of control | dose: 20.0 mg/kg/injection, schedule: Q01DX001 (ip), vehicle: other 111 % of control | dose: 40.0 mg/kg/injection, schedule: Q01DX001 (ip), vehicle: other 105 % of control

CCN(CC)CCC(=O)c1cccc2c1OC(C)(C)C2
inactive: dose: 12.5 mg/kg/injection, schedule: Q01DX009 (ip), vehicle: saline 100 % of control and 105 % of control | [6] 103 % of control | dose: 25.0 mg/kg/injection, schedule: Q01DX009 (ip), vehicle: saline 93 % of control and 100 % of control | [7] 97 % of control | [8] 93 % of control and 102 % of control | dose: 50.0 mg/kg/injection, schedule: Q04DX003 (ip), vehicle: saline 103 % of control

C=CCNC(=O)C[n+]1cccc(C(=O)NC)c1
inactive: [9] 106 % of control | [10] 103 % of control | dose: 400.0 mg/kg/injection, schedule: Q01DX001 (ip), vehicle: saline 97 % of control

CCCCCCCCC(C)NCCO (stereo not drawn)
inactive: dose: 9.5 mg/kg/injection, schedule: Q01DX001 (ip), vehicle: saline 96 % of control | dose: 19.0 mg/kg/injection, schedule: Q01DX001 (ip), vehicle: saline 93 % of control | dose: 38.0 mg/kg/injection, schedule: Q01DX001 (ip), vehicle: saline 90 % of control

CNc1c(C)cccc1C
inactive: dose: 50.0 mg/kg/injection, schedule: Q04DX003 (ip), vehicle: Klucel (hydroxypropylcellulose) (HPC) 105 % of control | dose: 100.0 mg/kg/injection, schedule: Q01DX001 (ip), vehicle: Klucel (hydroxypropylcellulose) (HPC) 104 % of control | [3] 94 % of control | dose: 200.0 mg/kg/injection, schedule: Q01DX001 (ip), vehicle: Klucel (hydroxypropylcellulose) (HPC) 102 % of control | [4] 101 % of control | dose: 400.0 mg/kg/injection, schedule: Q01DX001 (ip), vehicle: Klucel (hydroxypropylcellulose) (HPC) 107 % of control

COC(=O)CC/C(C)=N\NC(=O)c1ccc[n+](C)c1
inactive: [8] 100 % of control | [1] 96 % of control | [2] 93 % of control

O=C1CCC(NC(=O)C(F)(F)F)C(=O)O1 (stereo not drawn)
inactive: [3] 101 % of control | [4] 94 % of control | [5] 92 % of control

NC(Cc1ccccc1)C(=O)NCCCCCCCCCCNC(=O)C(N)Cc1ccccc1 (stereo not drawn)
inactive: dose: 50.0 mg/kg/injection, schedule: Q01DX001 (ip), vehicle: saline 98 % of control | [9] 104 % of control | [10] 103 % of control
